The values below come from article PMC6364417, “Kinase inhibitor library screening identifies synergistic drug combinations effective in sensitive and resistant melanoma cells” (Journal of Experimental & Clinical Cancer Research : CR, 2019).

By viability is commonly meant a read-out of living cells in per cent, often relative to untreated cells.

Test in all cases: Kinase inhibitor library screening, PrestoBlue cell viability, 1 or 10 μM, 72 h
One experiment deals with 501Mel cells (parental). The note with it: 72 h. The method, boiled down: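 PrestoBlue viability readout after 72 h exposure to each inhibitor at 1 or 10 μM, reported relative to untreated cells as % viability. Lines tested: sensitive parental plus derivatives resistant to Vemurafenib (XP) or Dabrafenib (GP), each run at least in duplicate.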
For experiment [1], the system named is 501Mel-GP cells (Dabrafenib-resistant). The note with it: 72 h; for Cell viability in kinase inhibitor library screening, 501Mel GP, 1μΜ / Cell viability in kinase inhibitor library screening, 501Mel GP, 10μΜ: in %.
Experiment [2] has as its system 501Mel-XP cells (Vemurafenib-resistant). The note with it: 72 h.
The next experiment has as its system A375 cells (parental). The note with it: for Cell viability in kinase inhibitor library screening, A375 Parental, 10μΜ / Cell viability in kinase inhibitor library screening, A375 Parental, 1μΜ: 72 h.
For experiment [3], the system named is A375-GP cells (Dabrafenib-resistant). The note with it: for Cell viability in kinase inhibitor library screening, A375 GP, 1μΜ / Cell viability in kinase inhibitor library screening, A375 GP, 10μΜ: 72 h.
Experiment [4] deals with A375-XP cells (Vemurafenib-resistant). The note with it: for Cell viability in kinase inhibitor library screening, A375 XP, 1μΜ / Cell viability in kinase inhibitor library screening, A375 XP, 10μΜ: 72 h.
In a further experiment the test system is IGR37 cells (parental). The note with it: for Cell viability in kinase inhibitor library screening, IGR37 Parental, 1μΜ / Cell viability in kinase inhibitor library screening, IGR37 Parental, 10μΜ: 72 h, in %.
For experiment [5], the system named is IGR37-GP cells (Dabrafenib-resistant).
The test system of experiment [6] is IGR37-XP cells (Vemurafenib-resistant). The note with it: for Cell viability in kinase inhibitor library screening, IGR37 XP, 10μΜ / Cell viability in kinase inhibitor library screening, IGR37 XP, 1μΜ: 72 h; for Cell viability in kinase inhibitor library screening, IGR37 XP, 1μΜ: in %.

SMILES strings stand for the structures.

With `Cc1ccc(F)c(NC(=O)Nc2ccc(-c3cccc4[nH]nc(N)c34)cc2)c1` [Linifanib (ABT-869)], the “Cell viability in kinase inhibitor library screening, 501Mel Parental, 1μΜ” value with 501Mel cells (parental) (501Mel Parental, in %) came to 98.1. In [1], the “Cell viability in kinase inhibitor library screening, 501Mel GP, 1μΜ” value came to 106.7 and the “Cell viability in kinase inhibitor library screening, 501Mel GP, 10μΜ” value came to 11.3. In experiment [2] (501Mel XP, in %), the “Cell viability in kinase inhibitor library screening, 501Mel XP, 10μΜ” value is listed as 3.8. In addition, in the experiment with A375 cells (parental), the “Cell viability in kinase inhibitor library screening, A375 Parental, 10μΜ” value is listed as 46.3 and the “Cell viability in kinase inhibitor library screening, A375 Parental, 1μΜ” value came to 106.9. In experiment [3], the “Cell viability in kinase inhibitor library screening, A375 GP, 1μΜ” value was 102.6 and the “Cell viability in kinase inhibitor library screening, A375 GP, 10μΜ” value turned out to be 38.3. Besides, in experiment [4], the “Cell viability in kinase inhibitor library screening, A375 XP, 1μΜ” value worked out at 110.5 and the “Cell viability in kinase inhibitor library screening, A375 XP, 10μΜ” value is given as 59.8. Besides, in the experiment with IGR37 cells (parental), the “Cell viability in kinase inhibitor library screening, IGR37 Parental, 1μΜ” value was determined as 99.9 and the “Cell viability in kinase inhibitor library screening, IGR37 Parental, 10μΜ” value is reported as 60.3. Moreover, in experiment [5] (IGR37 GP, 72 h), the Cell viability in kinase inhibitor library screening, IGR37 GP, 10μΜ is 52.4%. In experiment [6], the Cell viability in kinase inhibitor library screening, IGR37 XP, 10μΜ turned out to be 30.7% and the “Cell viability in kinase inhibitor library screening, IGR37 XP, 1μΜ” value is reported as 102.6.

Regarding `COc1ccc(-c2ccc3ncc4c(c3c2)n(-c2ccc(N3CCNCC3)c(C(F)(F)F)c2)c(=O)n4C)cn1` [NVP-BGT226], the “Cell viability in kinase inhibitor library screening, 501Mel Parental, 1μΜ” value with 501Mel cells (parental) (501Mel Parental, in %) was 1.2. Also, the “Cell viability in kinase inhibitor library screening, 501Mel Parental, 10μΜ” value in the experiment on 501Mel cells (parental) (501Mel Parental, 10μΜ, in %) turned out to be 1.1. Also, in [1], the “Cell viability in kinase inhibitor library screening, 501Mel GP, 1μΜ” value came out at 0.9 and the “Cell viability in kinase inhibitor library screening, 501Mel GP, 10μΜ” value came out at 0.145. For the same compound, the “Cell viability in kinase inhibitor library screening, 501Mel XP, 1μΜ” value in experiment [2] (501Mel XP, 1μΜ, in %) was found to be 1.5. The “Cell viability in kinase inhibitor library screening, 501Mel XP, 10μΜ” value in [2] (501Mel XP, in %) worked out at 1.1. Besides, in the experiment on A375 cells (parental), the “Cell viability in kinase inhibitor library screening, A375 Parental, 10μΜ” value is 0.952 and the “Cell viability in kinase inhibitor library screening, A375 Parental, 1μΜ” value was 9.1. Besides, in experiment [3], the “Cell viability in kinase inhibitor library screening, A375 GP, 1μΜ” value is on record as 7.1 and the “Cell viability in kinase inhibitor library screening, A375 GP, 10μΜ” value is 0.9. For the same compound, in experiment [4], the “Cell viability in kinase inhibitor library screening, A375 XP, 1μΜ” value is reported as 7.2 and the “Cell viability in kinase inhibitor library screening, A375 XP, 10μΜ” value worked out at 1.0. Besides, in the experiment with IGR37 cells (parental), the “Cell viability in kinase inhibitor library screening, IGR37 Parental, 1μΜ” value is listed as 2.3 and the “Cell viability in kinase inhibitor library screening, IGR37 Parental, 10μΜ” value is on record as -1.8. This compound also showed a Cell viability in kinase inhibitor library screening, IGR37 GP, 10μΜ in [5] (IGR37 GP, 72 h) of 2.6%. The “Cell viability in kinase inhibitor library screening, IGR37 GP, 1μΜ” value in [5] (IGR37 GP, 1μΜ, 72 h, in %) worked out at 2.9. Besides, in experiment [6], the Cell viability in kinase inhibitor library screening, IGR37 XP, 10μΜ came to 1.4% and the “Cell viability in kinase inhibitor library screening, IGR37 XP, 1μΜ” value was 2.5.

Take `Oc1c2ccccc2c2c3c(cccc13)N=N2` [SP600125]: the viability at 1 µM in the experiment on 501Mel cells (parental) (Homo sapiens, read-out: cell viability, 501Mel Parental, 1μΜ) was 107%; in experiment [1] (Homo sapiens, read-out: cell viability, 501Mel GP, 1μΜ), 95.4%; in experiment [2] (Homo sapiens, read-out: cell viability, 501Mel XP, 1μΜ), 94.3%; in the experiment with A375 cells (parental) (Homo sapiens, A-375, 72 h, read-out: cell viability, A375 Parental, 1μΜ), 102%; in experiment [3] (Homo sapiens, A-375, 72 h, read-out: cell viability, A375 GP, 1μΜ), 98.3%; in experiment [4] (Homo sapiens, A-375, 72 h, read-out: cell viability, A375 XP, 1μΜ), 103%. In addition, the viability at 1 µM turned out to be 98.4% in the experiment on IGR37 cells (parental) (Homo sapiens, IGR-37, 72 h, read-out: cell viability, IGR37 Parental, 1μΜ); 92.5% in experiment [5] (Homo sapiens, IGR-37, 72 h, read-out: cell viability, IGR37 GP, 1μΜ); 96.5% in experiment [6] (Homo sapiens, IGR-37, 72 h, read-out: cell viability, IGR37 XP, 1μΜ). The viability at 10 µM in the experiment on 501Mel cells (parental) (Homo sapiens, read-out: cell viability, 501Mel Parental, 10μΜ) came to 75.1%; in experiment [1] (Homo sapiens, read-out: cell viability, 501Mel GP, 10μΜ) it was 66.8%; in experiment [2] (Homo sapiens, read-out: cell viability, 501Mel XP, 10μΜ), 54.5%; with A375 cells (parental) (Homo sapiens, A-375, 72 h, read-out: cell viability, A375 Parental, 10μΜ), 79.2%; in experiment [3] (Homo sapiens, A-375, 72 h, read-out: cell viability, A375 GP, 10μΜ), 83.9%; in experiment [4] (Homo sapiens, A-375, 72 h, read-out: cell viability, A375 XP, 10μΜ), 91.5%. The viability at 10 µM with IGR37 cells (parental) (Homo sapiens, IGR-37, 72 h, read-out: cell viability, IGR37 Parental, 10μΜ) came to 70.6%; in experiment [5] (Homo sapiens, IGR-37, 72 h, read-out: cell viability, IGR37 GP, 10μΜ), 74.4%; in [6] (Homo sapiens, IGR-37, 72 h, read-out: cell viability, IGR37 XP, 10μΜ) it was 45.8%.
